Measurements as given in US9266921B2, “PGC-1α-modulating peptides” (Lipotec, S.A., priority 2011, dated 2016).

Legend:
PGC-1α gene = test: Transcription of the PGC-1α gene, quantitative real time PCR in differentiating pre-adipocytes; assay type: cell-based; settings: subcutaneous human adipocytes; peptide 0.1 mg/mL in PDM-2, 10 days; PGM-2 = 0%, PDM-2 = 100%
Procedure: The expression levels of the gene PGC-1α are measured by PCR in quantitative real time. A cell line of subcutaneous human pre-adipocytes is incubated in PGM™-2 medium at a density of 100,000 cells/well in a volume of 100 μL for 24 hours. Differentiation is induced by changing the medium to PDM-2 in the presence of the peptides Ac-L-Ser-L-Ile-L-Tyr-L-Val-L-Ala-L-Thr-NH2 (Ac-SEQ ID NO. 1-NH2) and Ac-L-Ser-L-Val-L-Val-L-Val-L-Arg-L-Thr-NH2 (Ac-SEQ ID NO. 2-NH2) at 0.1 mg/mL for 10 days, after which the cells were lysed and the RNA is extracted. The PCR is carried out in quantitative real time using the Taqman® Gene Expression Cells-to-CT (Applied Biosystems) kit according to the manufacturer's instructions and with the appropriate probes (TaqMan® Hs01016719_m1 probe for the PGC-1α gene and Taqman® Hs99999901_s1 probe for the eukaryotic ribosomal subunit 18S, the endogenous control of expression) and the values are normalized with regards to the maximum differentiation controls (PDM-2 medium, maximum quantity of PGC-1α mRNA) and minimal differentiation (PGM™-2 medium, minimum quantity of PGC-1α mRNA).

breasts = test: Volume of the breasts in volunteers (Fast Optical In Vivo Topometry); parameters: species or system human; settings: treatment up to 56 days
Excerpt: 22 Caucasian volunteers between the age of 25 and 40, with healthy skin and a bra size of between 36 C to 40 E applied the composition from Example 16 to one breast and a placebo composition (the same composition from Example 16 without the peptide) to the other breast, twice a day for 56 days. The volume of the breasts was instrumentally assessed at the beginning of the study, after 14 days and 28 days of applying the compositions and at the end of the study (56 days) using the Fast Optical In Vivo Topometry Technique, which enables the volume of the breasts to be calculated in mm^3. The volume of the breasts was normalized initially at an arbitrary value of 100,000 mm^3 and the changes in volume of the breasts was measured at the different treatment times in relation to their initial volume. The statistical analysis of the evolution of the parameters measured during the study was carried out using the Student's t-test or the Wilcoxon test. The statistical significance threshold was established at 5%.

human PGC-1α promoter = test: Modulation of the human PGC-1α promoter activity (luciferase reporter, Hep G2); assay type: cell-based; settings: Hep G2 transfected with luciferase under human PGC-1α promoter; peptide 0.5 mg/mL, 24 hours; normalized to carrier = 100%
Procedure: The modulation capacity of the promoter of human PGC-1α is evaluated by the peptides in the invention in the hepatocellular Hep G2 carcinoma cell line transfected with the luciferase gene under the regulation of the human PGC-1α promoter. The cells are seeded at a density of 20,000 cells/25 cm^2 plate) and incubated for 24 hours in RPMI-1640 complete medium, after which the peptides of the invention are added at 0.5 mg/mL and are incubated for another 24 hours. The RPMI-1640 complete medium (carrier) is used as a negative control. The measurement of the promoter's activity is carried out using the Steady-Glo® Luciferase Assay System (PROMEGA) kit following the manufacturer's instructions. The luminescence values are read on a luminometer […] and the activity of the promoter is determined, which is normalized with regards to the values of the negative control.

[1] = test system: subcutaneous human pre-adipocytes; test: Accumulation of lipids in subcutaneous human pre-adipocytes (AdipoRed); assay type: cell-based; settings: peptide 0.1 mg/mL in PDM-2, 10 days, PGM-2 = 0%, PDM-2 = 100%
Procedure: The levels of accumulation of lipids in subcutaneous human pre-adipocytes were quantified using the AdipoRed™ (Lonza) reagent. 100,000 cells were cultivated per well in PGM™-2 medium at a final volume of 100 μL. After 24 hours, the differentiation from pre-adipocytes to mature adipocytes was induced changing the medium to PDM-2 in the presence of the different peptides at 0.1 mg/mL. After 10 days of treatment with the peptides in differentiation medium, the quantity of intracellular lipids was evaluated using the AdipoRed™ reagent following the manufacturer's instructions measuring the fluorescence of the samples (length of the excitation wave 485 nm and emission 535 nm) after adding the AdipoRed™ reagent. The fluorescence values were corrected with regards to the basal fluorescence and were normalized with regards to the maximum differentiation controls (PDM-2 medium, maximum accumulation of lipids) and minimum differentiation (PGM™-2 medium, minimum accumulation of lipids).

## Ac-L-Ser-L-Val-L-Val-L-Val-L-Arg-L-Thr-NH2 (Ac-SVVVRT-NH2) [Ac-SEQ ID NO. 2-NH2]
PGC-1α gene
  % relative quantity of PGC-1α mRNA: 125%
breasts
  effect on the volume of the breasts: induces an increase in the volume of the breasts
Human PGC-1α promoter
  Activity of the PGC-1α promoter (%): 114%
[1]
  % Accumulation of intracellular lipids: 128%
